Measurements reported in patent publication US20100041661A1, “CASPASE INHIBITORS BASED ON PYRIDAZINONE SCAFFOLD” (LG Life Sciences Ltd., priority 2006, published 2010).

Key:
caspase-8 = target: T1, caspase-8 (Homo sapiens, UniProt Q14790); test: Assay for the caspase inhibitory effect (fluorescent substrate AcDEVD-AFC); assay type: biochemical; conditions: pH 7.5; 2.1 nM caspase-8, 50 μM AcDEVD-AFC, 25° C., pH 7.50; read-out: Caspase-8 Kobs/[I] (converted)
T1 construct: p10 and p20 subunits (Thornberry, N. A. et al, Nature, 1992, 356, 768) were expressed in E. coli; made in house; host or cells: E. coli
Method: Caspase-1 and caspase-8 known as cysteine proteases in the form of α2β2 were expressed, purified, and activated by modifying a method known in Thornberry, N. A. et al, Nature, 1992, 356, 768; Thornberry, N. A. Methods in Enzymology, 1994, 244, 615; Walker, N. P. C. et al. Cell, 1994, 78, 343, and caspase-9 was also purified by a similar method, and the inhibitory activity against them was tested. Briefly describing, p10 and p20 subunits (Thornberry, N. A. et al, Nature, 1992, 356, 768) were expressed in E. coli and purified by nickel column and anionic exchange chromatography to give caspase-1, caspase-8 and caspase-9. The fluorescent substrates AcYVAD-AFC for thus obtained caspase-1, AcDEVD-AFC for caspase-8, and AcLEHD-AFC for caspase-9, were used for determining specific activity of the synthesized inhibitors. The enzyme reaction was carried out at 25° C. with various concentrations of the inhibitors in a buffer solution containing 50 mM HEPES (pH 7.50), 10% (w/v) sucrose, 0.1% (w/v) CHAPS, 100 mM NaCl, 1 mM EDTA, and 10 mM DTT in the presence of 50 μM AcYVAD-AFC for 10 nM caspase-1, 50 μM AcDEVD-AFC for 2.1 nM caspase-8, and 150 μM AcLEHD-AFC for 200 nM caspase-9. The inhibitory constants Ki and Kobs of the inhibitors were determined by measuring the reaction velocity with the time lapse using a fluorescent spectrometer and by obtaining the initial rate constant. Ki was calculated from the Lineweaver Burk Plot, and Kobs from the following Equation 1.
Kobs=−ln(1−At/Aoo)/t [Equation 1]
At means cleavage rate (%) at time t, and
Aoo means the maximum cleavage rate (%).
Spectra MAX GeminiXS Fluorescent Spectrometer of Molecular Device Co. was used at the excitation wavelength of 405 nm and the emission wavelength of 505 nm.

[1] = tested on: Jurkat cell (ATCC TIB-152); test: Fas antibody-induced apoptosis of Jurkat cells, WST-1 method; assay type: cell-based; conditions: Homo sapiens, apoptosis induced by Fas antibody, alive cells by WST-1
Method: The […] inhibitory activity of the inhibitors was determined by subjecting Jurkat cell (ATCC TIB-152) to apoptosis using Fas antibody (Upstate Biotech 05-201) and by detecting the color change according to the WST-1 method known in Francoeur A. M. and Assalian A. (1996) Biochemica 3, 19-25 to observe the amount of alive Jurkat cells when the cells were treated by the inhibitor. Spectra MAX 340 Spectrometer of Molecular Device Co. was used at the absorbance wavelength of 440 nm.

T1 sequence (Q14790 217-374 limits assumed, species assumed): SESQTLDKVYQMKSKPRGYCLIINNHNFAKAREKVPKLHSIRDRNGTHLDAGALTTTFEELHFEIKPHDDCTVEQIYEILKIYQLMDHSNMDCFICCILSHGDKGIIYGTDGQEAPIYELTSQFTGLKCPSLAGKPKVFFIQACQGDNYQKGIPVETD
T1 sequence (Q14790 385-479 limits assumed, species assumed): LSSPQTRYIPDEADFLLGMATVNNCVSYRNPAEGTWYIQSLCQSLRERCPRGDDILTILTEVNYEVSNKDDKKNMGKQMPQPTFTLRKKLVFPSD

Compound	kinact/KI (caspase-8)	IC50 [1]
CCC(C(=O)N[C@@H](CC(=O)O)C(=O)COc1c(F)c(F)cc(F)c1F)n1nc(Cc2ccccc2C(C)(C)C)ccc1=O (stereo partly drawn) [Example 6, (S)-3-{2-[3-(2-tert-Butyl-benzyl)-6-oxo-6H-pyridazin-1-yl]-butyrylamino}-4-oxo-5-(2,3,5,6-tetrafluoro-phenoxy)-pentanoic acid]	2830 M⁻¹ s⁻¹	–
CCC(C(=O)N[C@@H](CC(=O)O)C(=O)COc1c(F)c(F)cc(F)c1F)n1nccc(Cc2ccccc2C(C)(C)C)c1=O (stereo partly drawn) [Example 5, (S)-3-{2-[5-(2-tert-Butyl-benzyl)-6-oxo-6H-pyridazin-1-yl]-butyrylamino}-4-oxo-5-(2,3,5,6-tetrafluoro-phenoxy)-pentanoic acid]	33300 M⁻¹ s⁻¹	170 nM
Cc1cc(Cc2ccccc2C(C)(C)C)c(=O)n(C(C)C(=O)N[C@@H](CC(=O)O)C(=O)COc2c(F)c(F)cc(F)c2F)n1 (stereo partly drawn) [Example 3, (S)-3-{2-[5-(2-tert-Butyl-benzyl)-3-methyl-6-oxo-6H-pyridazin-1-yl]-propionylamino}-4-oxo-5-(2,3,5,6-tetrafluoro-phenoxy)-pentanoic acid]	6670 M⁻¹ s⁻¹	–
CCC(C(=O)NC(CC(=O)O)C(=O)CF)n1nc(C)cc(Cc2ccccc2C(C)(C)C)c1=O (stereo not drawn) [Example 1, 3-{2-[5-(2-tert-Butyl-benzyl)-3-methyl-6-oxo-6H-pyridazin-1-yl]-butyrylamino}-5-fluoro-4-oxo-pentanoic acid]	91700 M⁻¹ s⁻¹	140 nM
CCC(C(=O)N[C@@H](CC(=O)O)C(=O)COc1c(F)c(F)cc(F)c1F)n1nc(C)cc(Cc2ccccc2C(C)(C)C)c1=O (stereo partly drawn) [Example 2, (S)-3-{2-[5-(2-tert-Butyl-benzyl)-3-methyl-6-oxo-6H-pyridazin-1-yl]-butyrylamino}-4-oxo-5-(2,3,5,6-tetrafluoro-phenoxy)-pentanoic acid]	33300 M⁻¹ s⁻¹	330 nM
Cc1cc(Cc2ccccc2C(C)(C)C)c(=O)n(CC(=O)N[C@@H](CC(=O)O)C(=O)COc2c(F)c(F)cc(F)c2F)n1 [Example 4, (S)-3-{2-[5-(2-tert-Butyl-benzyl)-3-methyl-6-oxo-6H-pyridazin-1-yl]-acetylamino}-4-oxo-5-(2,3,5,6-tetrafluoro-phenoxy)-pentanoic acid]	3330 M⁻¹ s⁻¹	–
